{"source": "paper PMC7906020", "about": "“Trp-Containing Antibacterial Peptides Impair Quorum Sensing and Biofilm Development in Multidrug-Resistant Pseudomonas aeruginosa and Exhibit Synergistic Effects With Antibiotics” (Frontiers in Microbiology, 2021)", "key": {"[1]": {"tested_on": "MRPA0108 swarming motility", "test": "Swarming motility assay", "type": "cell-based, Pseudomonas aeruginosa", "details": "erythromycin positive control, concentration not given; 24 h, 37°C; vs control", "method": "The swarming motility of MRPA0108 was assessed as described by [O’May and Tufenkji (2011)], with slight modifications. Briefly, swarming agar medium (1% tryptone, 0.5% NaCl, and 0.5% agar) was prepared in the presence or absence of peptide at a final concentration of 1/4 × MIC. MRPA0108 cells from an overnight culture grown on LB agar plates were placed directly on the agar surface (center) with a sterile toothpick so that the motility within the semisolid agar could be evaluated. After 24 h of incubation at 37°C, the diameters of swarming motility were observed and measured. LB liquid medium and erythromycin were used as negative control and positive controls, respectively. All experiments were repeated three times."}, "MRPA0108 biofilms": {"tested_on": "MRPA0108 biofilms", "test": "Confocal laser scanning microscopy of biofilms (LIVE/DEAD staining)", "type": "cell-based, Pseudomonas aeruginosa", "details": "erythromycin positive control, concentration not given; 24 h; control 8.7%", "method": "Biofilms of MRPA0108 were visualized by confocal microscopy. Mid-log growth-phase bacteria were diluted to 1 × 10^7 CFU/ml. […] LB liquid medium and erythromycin were used as negative and positive controls, respectively. After incubation, the supernatant was removed, and the slides were washed and stained in a dark environment for 30 min using a LIVE/DEAD BacLight^TM Bacterial Viability Kit (Invitrogen, Life Technologies, Shanghai, China). The slides were washed three times and imaged with a confocal laser scanning microscope (LSM 710, Carl Zeiss, Germany) with excitation/emission wavelengths of 480/500 and 490/635 nm for SYTO9 and propidium iodide (PI), respectively. SYTO9 was used to indicate live bacteria, and PI was used to mark dead bacteria."}}, "data": [{"smiles": "CC[C@H]1OC(=O)[C@H](C)[C@@H](O[C@H]2C[C@@](C)(OC)[C@@H](O)[C@H](C)O2)[C@H](C)[C@@H](O[C@@H]2O[C@H](C)C[C@H](N(C)C)[C@H]2O)[C@](C)(O)C[C@@H](C)C(=O)[C@H](C)[C@@H](O)[C@]1(C)O", "note": "[erythromycin, reference compound]", "values": [{"measurement": "reduction in swarming motility", "setting": "[1]", "value": 85, "unit": "%"}, {"measurement": "percentage of dead/live cells in biofilm", "setting": "MRPA0108 biofilms", "value": 68.9, "unit": "%"}]}]}
